Assay results: patent EP2975030B1, “DIHYDROPYRIDAZINE-3,5-DIONE DERIVATIVE” (Chugai Seiyaku Kabushiki Kaisha, priority 2013, dated 2014)

Tested on: rat small-intestinal brush border membrane vesicles
Experiment: Inhibitory effect on 33PO4 uptake into rat small-intestinal brush border membrane vesicles (rapid filtration method)
Type: biochemical, Wistar female rat
Conditions: 1 µM test compound; 33PO4 uptake into rat small-intestinal BBMVs, 60 seconds
How it was run: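 33PO4 uptake into rat small-intestinal brush border membrane vesicles measured by rapid filtration. Reactions were stopped with ice-cold buffer (110 mM NaCl, 1 mM KH2PO4, 10 mM HEPES pH 7.5), filtered and washed. Vesicle-associated radioactivity was counted by liquid scintillation.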

First: (4aR)-1-[(2,3-Difluorophenyl)methyl]-4a-ethyl-4-hydroxy-N-[5-methyl-2-(trifluoromethyl)furan-3-yl]-2-oxo-6,7-dihydro-5H-pyrrolo[1,2-b]pyridazine-3-carboxamide [Example 10]
Second: CN1N(Cc2ccc(OCCN3CCN(S(C)(=O)=O)CC3)c(F)c2F)C(=O)C(C(=O)Nc2ccc(C(F)(F)F)cc2-c2cc(C(F)(F)F)ncn2)=C(O)C12CCCC2 [Example 379]
The “Rate of uptake inhibition (%) (1 µM)” value of the first is lower: 37% for the first, 137% for the second.

First: C[C@]12CCCN1N(Cc1ccc(Cl)cc1)C(=O)C(C(=O)Nc1cc(F)c(Br)c(F)c1)=C2O [Example 223]
Second: C[C@@H]1COC[C@H](C)N1CCOc1ccc(CN2C(=O)C(C(=O)Nc3ccc(C(F)(F)F)cc3-c3cc(C(F)(F)F)ncn3)=C(O)C3(CCC3)N2C)c(F)c1F [Example 344]
The “Rate of uptake inhibition (%) (1 µM)” value of the first is higher: 77% for the first, 58% for the second.

C[C@]12CCCN1N(Cc1cccc(OC(F)(F)F)c1)C(=O)C(C(=O)Nc1ccc(C(F)(F)F)cc1-c1cc(C(F)(F)F)ncn1)=C2O [Example 189] and C[C@]12CCCN1N(Cc1c(F)cc(OCCCCCOC[C@@H](O)CO)cc1F)C(=O)C(C(=O)Nc1ccc(C(F)(F)F)cc1-c1ccc(C(F)(F)F)nc1)=C2O [Example 153] are the same in “Rate of uptake inhibition (%) (1 µM)” value: 73% for the first, 73% for the second.

Compared with CN1[C@@H](C(C)(C)C)C(O)=C(C(=O)Nc2ccc(Cl)cc2-c2ccc(C(F)(F)F)nc2)C(=O)N1Cc1cccc(F)c1F [Example 239], CN(C[C@H](O)[C@@H](O)[C@H](O)[C@H](O)CO)C(=O)CCOCCOCCOc1ccc(CN2C(=O)C(C(=O)Nc3ccc(C(F)(F)F)cc3-c3cc(C(F)(F)F)ncn3)=C(O)C3(CCCC3)N2C)c(F)c1F [Example 422] is lower in “Rate of uptake inhibition (%) (1 µM)” value: 48% for the first, 29% for the second.

Compared with CN1N(Cc2cccc(F)c2F)C(=O)C(C(=O)Nc2ccc(Br)c(C(F)(F)F)n2)=C(O)C12CCC2 [Example 258], CCC12CCCCN1N(Cc1cccc(F)c1F)C(=O)C(C(=O)Nc1cc(C)oc1C(F)(F)F)=C2O (stereo not shown) [Example 19, 1-[2,3-(Difluorophenyl)methyl]-4a-ethyl-4-hydroxy-N-[5-methyl-2-(trifluoromethyl)furan-3-yl]-2-oxo-5,6,7,8-tetrahydropyrido[1,2-b]pyridazine-3-carboxamide] is lower in “Rate of uptake inhibition (%) (1 µM)” value: 87% for the first, 41% for the second.

Going from CN1N(Cc2ccc(OCCN3CCN(CCOCCO)CC3)c(F)c2F)C(=O)C(C(=O)Nc2ccc(C(F)(F)F)cc2-c2cc(C(F)(F)F)ncn2)=C(O)C12CCCC2 [Example 378] to CN(CCOCCC(=O)N(C)C[C@H](O)[C@@H](O)[C@H](O)[C@H](O)CO)CCOc1ccc(CN2C(=O)C(C(=O)Nc3ccc(C(F)(F)F)cc3-c3cc(C(F)(F)F)ncn3)=C(O)C3(CCCC3)N2C)c(F)c1F [Example 425], the “Rate of uptake inhibition (%) (1 µM)” value falls from 35% to 5%.

First: CN1N(Cc2ccc(OCC(=O)N3CCOCC3)c(F)c2F)C(=O)C(C(=O)Nc2ccc(C(F)(F)F)cc2-c2cc(C(F)(F)F)ncn2)=C(O)C12CCC2 [Example 336, 8-[[2,3-Difluoro-4-(2-morpholin-2-oxo-ethoxy)phenyl]methyl]-5-hydroxy-9-methyl-7-oxo-N-[4-(trifluoromethyl)-2-[6-(trifluoromethyl)pyrimidin-4yl]phenyl]-8,9-diazaspiro[3.5]non-5-ene-6-carboxamide]
Second: C[C@]12CCCN1N(Cc1cccc(F)c1F)C(=O)C(C(=O)Nc1ccc(C(F)(F)F)cc1-c1cnc(Cl)c(C#N)c1)=C2O [Example 68, (4aR)-N-[2-(6-Chloro-5-cyanopyridin-3-yl)-4-(trifluoromethyl)phenyl]-1-[(2,3-difluorophenyl)methyl]-4-hydroxy-4a-methyl-2-oxo-6,7-dihydro-5H-pyrrolo[1,2-b]pyridazine-3-carboxamide]
The “Rate of uptake inhibition (%) (1 µM)” value of the first is lower: 44% for the first, 84% for the second.

Going from CCCCCN1C(=O)C(C(=O)Nc2ccc(C(F)(F)F)cc2-c2ccc(C(F)(F)F)nc2)=C(O)[C@@]2(C)CCCN12 [Example 26] to COc1cccc(-c2cc(C(F)(F)F)ccc2NC(=O)C2=C(O)[C@@]3(C)CCCN3N(Cc3ccc(C#CCOCCOCCOCCO)c(F)c3F)C2=O)c1OC [Example 136], the “Rate of uptake inhibition (%) (1 µM)” value rises from 72% to 80%.

First: CN1N(Cc2ccc(OCCCCCC(=O)O)c(F)c2F)C(=O)C(C(=O)Nc2ccc(C(F)(F)F)cc2-c2cc(C(F)(F)F)ncn2)=C(O)C12CCCC2 [Example 334]
Second: C[C@]12CCCN1N(Cc1ccc(F)c(F)c1)C(=O)C(C(=O)Nc1ccc(C(F)(F)F)cc1-c1ccc(C(F)(F)F)nc1)=C2O [Example 170]
The “Rate of uptake inhibition (%) (1 µM)” value of the first is lower: 22% for the first, 73% for the second.

Going from CCOC(=O)CCCCCCN1C(=O)C(C(=O)Nc2ccc(C(F)(F)F)cc2-c2ccc(C(F)(F)F)nc2)=C(O)[C@@]2(C)CCCN12 [Example 235, Ethyl 7-[(4aR)-4-hydroxy-4a-methyl-2-oxo-3-[[4-(trifluoromethyl)-2-[6-(trifluoromethyl)pyridin-3-yl]phenyl]carbamoyl]-6,7-dihydro-5H-pyrrolo[1,2-b]pyridazin-1-yl]heptanoate] to C[C@]12CCCN1N(Cc1cccc(Cl)c1F)C(=O)C(C(=O)Nc1ccc(C(F)(F)F)cc1-c1ccc(C(F)(F)F)nc1)=C2O [Example 198], the “Rate of uptake inhibition (%) (1 µM)” value rises from 65% to 75%.

Going from Cc1cc(NC(=O)C2=C(O)[C@@H]3CCCN3N(Cc3cccc(F)c3)C2=O)c(C(F)(F)F)o1 [Example 1, (4aS)-1-[(3-Fluorophenyl)methyl]-4-hydroxy-N-[5-methyl-2-(trifluoromethyl)furan-3-yl]-2-oxo-4a,5,6,7-tetrahydropyrrolo[1,2-b]pyridazine-3-carboxamide] to C[C@]12CCCN1N(Cc1ccccc1Cl)C(=O)C(C(=O)Nc1cc(F)c(Br)c(F)c1)=C2O [Example 219], the “Rate of uptake inhibition (%) (1 µM)” value rises from 28% to 95%.

First: Cc1cc(NC(=O)C2=C(O)[C@]3(C)CCCN3N(Cc3cccc(F)c3)C2=O)c(C(F)(F)F)o1 [Example 8]
Second: C[C@]12CCCN1N(Cc1ccccc1Cl)C(=O)C(C(=O)Nc1ccc(C(F)(F)F)cc1-c1cc(C(F)(F)F)ncn1)=C2O [Example 180]
The “Rate of uptake inhibition (%) (1 µM)” value of the first is lower: 37% for the first, 75% for the second.

Going from CN(CCOc1ccc(CN2C(=O)C(C(=O)Nc3ccc(C(F)(F)F)cc3-c3cc(C(F)(F)F)ncn3)=C(O)C3(CCC3)N2C)c(F)c1F)C1CCOC1 (stereo not shown) [Example 338, 6-[[2,3-Difluoro-4-[2-[methyl(oxolan-3-yl)amino]ethoxy]phenyl]methyl]-9-hydroxy-5-methyl-7-oxo-N-[4-(trifluoromethyl)-2-[6-(trifluoromethyl)pyrimidin-4-yl]phenyl]-5,6-diazaspiro[3.5]non-8-ene-8-carboxamide] to C[C@]12CCCN1N(Cc1cc(F)cc(F)c1)C(=O)C(C(=O)Nc1ccc(C(F)(F)F)cc1-c1cc(C(F)(F)F)ncn1)=C2O [Example 213], the “Rate of uptake inhibition (%) (1 µM)” value rises from 66% to 79%.

Going from CN1N(Cc2cccc(F)c2F)C(=O)C(C(=O)Nc2ccc(Cl)cc2-c2ccc(C(F)(F)F)nc2)=C(O)C1(C)C [Example 309] to C[C@]12CCCN1N(Cc1c(F)cc(OCCCCCCOC[C@H](O)CO)cc1F)C(=O)C(C(=O)Nc1ccc(C(F)(F)F)cc1-c1ccc(C(F)(F)F)nc1)=C2O [Example 155], the “Rate of uptake inhibition (%) (1 µM)” value rises from 68% to 77%.

Going from CN1N(Cc2ccc(OCCCCOC[C@H](O)CO)c(F)c2F)C(=O)C(C(=O)Nc2ccc(C(F)(F)F)cc2-c2ccc(C(F)(F)F)nc2)=C(O)C12CCCC2 [Example 387] to COC1(C)CN(CCOc2ccc(CN3C(=O)C(C(=O)Nc4ccc(C(F)(F)F)cc4-c4cc(C(F)(F)F)ncn4)=C(O)C4(CCC4)N3C)c(F)c2F)C1 [Example 356], the “Rate of uptake inhibition (%) (1 µM)” value rises from 23% to 58%.

Going from Cc1c(-c2cc(C(F)(F)F)ccc2NC(=O)C2=C(O)C3(CCC3)N(C)N(Cc3ccc(OCCN4CCOCC4)c(F)c3F)C2=O)ncnc1C(F)(F)F [Example 285] to Cc1c(-c2cc(C(F)(F)F)ccc2NC(=O)C2=C(O)[C@H](C(C)(C)C)N(C)N(Cc3ccc(OCCN4CCOCC4)c(F)c3F)C2=O)ncnc1C(F)(F)F [Example 278], the “Rate of uptake inhibition (%) (1 µM)” value rises from 62% to 69%.

First: CSc1ccc(-c2cc(C(F)(F)F)ccc2NC(=O)C2=C(O)[C@@]3(C)CCCN3N(Cc3ccc(OCCCCOC[C@H](O)CO)c(F)c3F)C2=O)cn1 [Example 120]
Second: CN1N(Cc2ccc(OCCN3CCN(CCCO)CC3)c(F)c2F)C(=O)C(C(=O)Nc2ccc(C(F)(F)F)cc2-c2cc(C(F)(F)F)ncn2)=C(O)C12CCC2 [Example 362]
The “Rate of uptake inhibition (%) (1 µM)” value of the first is higher: 66% for the first, 17% for the second.

Compared with C[C@@H]1COC[C@H](C)N1CCOc1ccc(CN2C(=O)C(C(=O)Nc3ccc(C(F)(F)F)cc3-c3cc(C(F)(F)F)ncn3)=C(O)C3(CCCC3)N2C)c(F)c1F [Example 370], CN1N(Cc2ccc(OCCN3CCOCC3(C)C)c(F)c2F)C(=O)C(C(=O)Nc2ccc(C(F)(F)F)cc2-c2cc(C(F)(F)F)ncn2)=C(O)C12CCCC2 [Example 371] is lower in “Rate of uptake inhibition (%) (1 µM)” value: 41% for the first, 38% for the second.

Going from COC(=O)c1cc(F)c(CN2C(=O)C(C(=O)Nc3ccc(C(F)(F)F)cc3-c3ccc(C(F)(F)F)nc3)=C(O)[C@@]3(C)CCCN23)c(F)c1 [Example 165, Methyl 4-[[(4aR)-4-Hydroxy-4a-methyl-2-oxo-3-[[4-(trifluoromethyl)-2-[6-(trifluoromethyl)pyridin-3-yl]phenyl]carbamoyl]-6,7-dihydro-5H-pyrrolo[1,2-b]pyridazin-1-yl]methyl]-3,5-difluorobenzoate] to COC(C)(C)CN(C)CCOc1ccc(CN2C(=O)C(C(=O)Nc3ccc(C(F)(F)F)cc3-c3cc(C(F)(F)F)ncn3)=C(O)C3(CCC3)N2C)c(F)c1F [Example 350], the “Rate of uptake inhibition (%) (1 µM)” value falls from 75% to 45%.

Compared with Cc1cccc(CN2C(=O)C(C(=O)Nc3ccc(C(F)(F)F)cc3-c3cc(C(F)(F)F)ncn3)=C(O)[C@@]3(C)CCCN23)c1F [Example 215], C[C@]12CCCN1N(Cc1ccc(C#CCN3CCCC3=O)c(F)c1F)C(=O)C(C(=O)Nc1ccc(Br)c(F)c1)=C2O [Example 131] is higher in “Rate of uptake inhibition (%) (1 µM)” value: 86% for the first, 87% for the second.
